In US20230094922A1, “METHODS OF THERAPEUTIC PROGNOSTICATION” (GENETIKAPLUS LTD., priority 2020, published 2023):

Columns and labels:
[1] = test system: iPSC-derived cortical neurons; assay: Dendritic spine length analysis, confocal imaging; assay type: cell-based, human
Procedure: FIG. 8. Average dendritic spine length. Dendritic spine length was analyzed using confocal microscopy in samples treated with Bupropion. For imaging of dendritic spines, images were acquired using the Nikon Confocal A1R with a 60× objective and a 2× digital zoom in z-stacks. Analysis was performed using Neurolucida software. FIGS. 9A-9B. Average dendritic spine length in specific spine types. […] For imaging of dendritic spines, images were acquired using the Nikon Confocal A1R with a 60× objective and a 2× digital zoom in z-stacks. Analysis was performed using Neurolucida software. iPSC differentiation into neurons-iPSCs were seeded at a density of 3×10^6 cells/well on a hESC-qualified Matrigel pre-coated 6-well plate and incubated at 37° C., 5% CO2 overnight. Differentiation was initiated the following day (day 0) after verifying that 100% confluency was reached. Differentiation media was added daily according to the following order: […]7 (day 15 onward) similar to a previously published protocol developed by for rapid differentiation to cortical neurons. The components of the described media, Q1-7, are provided in Appendix 1. Cells were assessed for differentiation efficiency and cell death on a daily basis. On day 9, differentiated neurons were re-plated on either 96-well plates (destined for staining) or 12-well plates (destined for RNA extraction) that were coated with 15 μg/mL Poly-ornithine diluted in PBS (overnight incubation at 37° C.), followed by 1 μg/mL Laminin and 2 μg/mL Fibronectin diluted in PBS (overnight incubation at 37° C.): Neurons were first rinsed with pre-warmed PBS and 1 ml/well of Accutase was added for 35 minutes at 37° C., 5% CO2. DNAse1 (0.5 mg/mL) was then added for 10 additional minutes. 3 ml of pre-warmed Neurobasal media was added to each well and neurons were gently collected using a 5 ml […]. Wells were then verified for the presence of any remaining neurons. Neurons were spun down and resuspended in Q6 media. Neurons were seeded at a density of 150,000 cells/cm^2 placed back at 37° C. Following four hours of incubation, media was changed to Q6 media (150 μl per 96-well and 1 ml per 12-well). […] For dendritic arborization analysis, pre/post-synaptic markers and colocalization analysis; α-Syn, PSD95 and MAP2 primary antibodies were used. Following washes, fluorophore-coupled secondary antibodies were incubated in the blocking solution for 1 hour at room temperature. The cells were counter-stained with 4',6-diamidino-2-phenylindole (DAPI) for nuclei detection for 15 minutes at room temperature followed by washes with PBS. […] Neuronal and synaptic morphology was assessed using the Neurolucida software, pre- and post-synaptic marker analysis was performed using CellProfiler and total dendritic length was measured using Fiji software.

[2] = test system: iPSC-derived cortical neurons; assay: Dendritic arborization analysis (dendrite length), confocal imaging; assay type: cell-based, human
Procedure: FIG. 7. Analysis of dendritic arborization. Dendritic arborization was analyzed using confocal microscopy in samples treated with Bupropion. Images for dendritic arborization were acquired with a 20× objective in z-stacks and analyzed using Neurolucida software. iPSC differentiation into neurons-iPSCs were seeded at a density of 3×10^6 cells/well on a hESC-qualified Matrigel pre-coated 6-well plate and incubated at 37° C., 5% CO2 overnight. Differentiation was initiated the following day (day 0) after verifying that 100% confluency was reached. Differentiation media was added daily according to the following order: […]7 (day 15 onward) similar to a previously published protocol developed by for rapid differentiation to cortical neurons. The components of the described media, Q1-7, are provided in Appendix 1. Cells were assessed for differentiation efficiency and cell death on a daily basis. […] Neuronal and synaptic morphology was assessed using the Neurolucida software, pre- and post-synaptic marker analysis was performed using CellProfiler and total dendritic length was measured using Fiji software.

[3] = cells derived from non-responders

CC(NC(C)(C)C)C(=O)c1cccc(Cl)c1 (stereo not drawn) [Bupropion, 3-Chloro-N-tert-butyl-β-keto-α-methylphenethylamin]
total dendritic spine length (average), after treatment [1, 3]: no difference
total dendritic spine length (average), after treatment ([1]; cells derived from responders): significant increase
specific spine types (mushroom, stubby, filopodia, thin), after treatment ([1]; cells from non-responders): increase in the number of stubby spines
specific spine types (mushroom, stubby, filopodia, thin), after treatment ([1]; responder's cells): significant increase in the number of mushroom, stubby and thin spines
dendritic length, effect of treatment (significant decrease or not) [2, 3]: did not
dendritic length, effect of treatment ([2]; neurons derived from responders): significant decrease in dendritic length
